The text below walks through data of PubChem BioAssay (NCI).

Common to all, as to assay: inhibition of tumour cell growth, NCI panel, 48 h
Assay [1] has as its system 786-0 renal.
Assay [2] has as its system MOLT-4 leukemia.
Assay [3] relates to NCI-H226 lung.
The test system of assay [4] is OVCAR-4 ovarian.
The test system of assay [5] is OVCAR-5 ovarian.
Assay [6] has as its system RPMI-8226 leukemia.
For assay [7], the system named is SF-268 CNS.
In assay [8] the test system is SF-295 CNS.
The test system of assay [9] is SK-MEL-5 melanoma.
Assay [10] relates to T-47D breast.

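48-hour exposure; five concentrations; linearly interpolated endpoints. GI50 marks 50% less growth. The concentration for full growth arrest is given as TGI.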

For `O=C(O)[C@@H](NS(=O)(=O)c1ccc([N+](=O)[O-])cc1)c1ccccc1`, the TGI in assay [1], in assay [2], in assay [3], in assay [4], in assay [5] and in assay [6] was above 100 µM throughout. Further, the TGI in assay [7], in [8] and in assay [9] was above 100 µM in each case.
`CCOC(=O)NC1CC2CCC1(OC)C=C2C` (stereo not given): the TGI in [1], in assay [2], in assay [3], in [4], in assay [5] and in assay [6] was above 100 µM throughout. Besides, the TGI in assay [7], in assay [8] and in [9] was above 100 µM in each case.
Turning to `FC(F)(F)c1nc(-c2ccccc2)oc1Sc1oc(-c2ccccc2)nc1C(F)(F)F`, the TGI is above 100 µM in [1]; above 100 µM in assay [2]; above 100 µM in assay [3]; 90.2 µM in assay [4]; above 100 µM in assay [5]; above 100 µM in assay [6]. Moreover, the TGI in assay [7], in [8] and in assay [9] was above 100 µM in each case.
For the compound `CCCCCCCCCCCCCCCCCC[N+](C)(C)Cc1ccc(C[N+](C)(C)CCCCCCCCCCCCCCCCCC)cc1`, the TGI in assay [1] is 39.1 µM; in [2], 51.8 µM; in assay [3], 41.5 µM; in assay [4], above 100 µM; in assay [5], 96.7 µM; in assay [6], 48.7 µM. The values for the TGI in assay [7], in assay [8] and in [9] were 43.1 µM, 24.2 µM and 66.6 µM, respectively.
`C=C[C@H]1C=Cc2c(OC)cccc2[C@@H]1COP1(=S)NC(C)C(c2ccccc2)O1` (stereo not given in full): the TGI in [1], in [2], in [3], in assay [4], in assay [6] and in [7] was above 100 µM in each case. The TGI in assay [8] and in assay [9] was above 100 µM throughout.
`Cc1ccccc1NC(=O)c1ccc([N+](=O)[O-])cc1`: the TGI in assay [1], in [2], in [3], in assay [4], in assay [5] and in assay [6] was above 100 µM each time. The TGI in assay [7], in assay [8] and in assay [9] was above 100 µM throughout.
Regarding `c1ccc2c(c1)[nH]c1c2ncc2[nH]c3ccccc3c21`, the TGI in [1] was found to be 5.61 µM; in assay [2], 8.96 µM; in assay [3], 49.1 µM; in assay [4], 3.79 µM; in assay [5], 22.9 µM; in [6], 6.27 µM. In addition, the TGI in assay [7] was 36.8 µM; in assay [8], 11.4 µM; in assay [9] it was 17.2 µM.
Consider `Cc1c(CC/C(=N\Nc2ccc([N+](=O)[O-])cc2[N+](=O)[O-])c2ccccc2)c2ccccc2n1C`, for which the TGI is above 100 µM in assay [1]; above 64.8 µM in assay [2]; above 100 µM in [3]; above 100 µM in assay [4]; above 100 µM in [5]; above 100 µM in assay [6]. In addition, the TGI in [7], in [8] and in assay [9] was above 100 µM in each case.
Consider `Nc1ncnc2c1ncn2C1OC(COC2C(CO)OC(OC(C(=O)O)C(O)C(OP(=O)(O)O)C(O)C(=O)O)C(O)C2O)C(O)C1O` (stereo not given), for which the TGI in assay [1], in assay [2], in assay [3], in assay [4], in assay [5] and in [6] was above 100 µM in each case. Besides, the TGI in assay [7], in assay [8] and in assay [9] was above 100 µM in each case.
Take `O=C(O)c1ccccc1Nc1ccc2nnc(-c3ccncc3)n2n1`: the GI50 was 4.64 µM in assay [1]; 6.99 µM in [2]; 17.4 µM in assay [5]; 5.6 µM in assay [7]; 13.3 µM in assay [8]; 3.92 µM in [9]. In addition, in assay [10], the GI50 is 4.3 µM. Besides, the TGI in assay [1] was 19.7 µM; in assay [2] it was above 100 µM; in assay [5], 79.3 µM; in assay [7], 29.2 µM; in assay [8], 40.1 µM; in [9], 14.8 µM. In [10], the TGI was found to be 22.3 µM.
With `c1ccc2c(CNCCCCCCCCCCCCNCc3cccc4ccccc34)cccc2c1`, the TGI in assay [1] was found to be 3.23 µM; in assay [2] it was 2.92 µM; in assay [3], 4.57 µM; in [4] it was 3.05 µM; in assay [5], 2.94 µM; in assay [6], 2.55 µM. For the same compound, the figures for the TGI in assay [7], in assay [8] and in assay [9] were 4.84 µM, 58.2 µM and 3.27 µM, respectively.
Take `COC1CC(OC)C(O)C(CO)O1` (stereo not given): the TGI in assay [1], in [2], in assay [4], in assay [5], in assay [8] and in assay [9] was above 100 µM in each case.
As to `COC(=O)Cc1cc(=O)n2c([nH]c3ccccc32)c1C#N`, the TGI in assay [1], in assay [2], in assay [3], in [4], in assay [5] and in [6] was above 100 µM each time. Also, the TGI in [7], in [8] and in [9] was above 100 µM throughout.
Regarding `Nc1nc(=Nc2ccccc2)ss1`, the TGI in [1], in [2], in [3], in [4], in assay [5] and in assay [6] was above 100 µM throughout. Also, the TGI in [7], in assay [8] and in assay [9] was above 100 µM each time.
As for `COC(=O)C1=C(C)N(NC(N)=O)C(C)(O)C12CCOC2=O` (stereo not given), the TGI in assay [1], in [2], in assay [3], in [4], in assay [5] and in assay [6] was above 100 µM in each case. The TGI in [7] and in assay [8] was above 100 µM in each case.
